Literature values as cited in patent US20260144769A1, “4-PHENYLBUTYRATE RESTORED GABA UPTAKE AND REDUCED SEIZURES IN SLC6A1 VARIANT-MEDIATED DISORDERS” (Vanderbilt University, priority 2022, published 2026).

Conditions: SLC6A1 mutation mediated disorders; cited from earlier work

Compound: CCCC(CCC)C(=O)O [Valproic acid]
- cognition: could not improve cognition
- seizure control: control seizures
